In ChEMBL document CHEMBL1141242, “Estrogen receptor beta selective ligands: discovery and SAR of novel heterocyclic ligands” (Bioorg Med Chem Lett, 2005):

Key:
Estrogen receptor beta [1] = target: Estrogen receptor beta (Homo sapiens, UniProt Q92731); test: biochemical
Estrogen receptor [2] = target: T1, Estrogen receptor (Homo sapiens, UniProt P03372); test: biochemical
T1 sequence (P03372 whole entry): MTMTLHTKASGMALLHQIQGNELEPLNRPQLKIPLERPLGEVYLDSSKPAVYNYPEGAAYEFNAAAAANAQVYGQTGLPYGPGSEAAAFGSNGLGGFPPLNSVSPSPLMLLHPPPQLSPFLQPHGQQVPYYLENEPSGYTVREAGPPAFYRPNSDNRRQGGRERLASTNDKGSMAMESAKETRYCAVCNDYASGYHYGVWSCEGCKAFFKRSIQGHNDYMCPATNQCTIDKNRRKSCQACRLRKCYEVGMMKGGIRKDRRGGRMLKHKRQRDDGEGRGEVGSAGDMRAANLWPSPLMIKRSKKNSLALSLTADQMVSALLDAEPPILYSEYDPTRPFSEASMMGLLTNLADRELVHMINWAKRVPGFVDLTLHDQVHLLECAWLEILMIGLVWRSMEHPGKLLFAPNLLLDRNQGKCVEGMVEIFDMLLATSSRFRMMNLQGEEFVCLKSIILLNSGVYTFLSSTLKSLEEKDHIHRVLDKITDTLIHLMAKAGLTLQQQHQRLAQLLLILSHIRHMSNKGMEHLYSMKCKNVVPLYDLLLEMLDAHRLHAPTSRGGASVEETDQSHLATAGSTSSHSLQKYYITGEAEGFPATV

Estrogen receptor beta [3] = target: Estrogen receptor beta (Rattus norvegicus, UniProt Q62986)
Description: Effect on ERbeta in rat ovary granulosa cell line transfected with ER responsive luciferase reporter

Estrogen receptor [4] = target: T1, Estrogen receptor
Description: Effect on ERalpha in MCF7 cell line transfected with ER responsive luciferase reporter

Estrogen receptor beta (Rattus norvegicus, UniProt Q62986), sequence (Q62986 whole entry): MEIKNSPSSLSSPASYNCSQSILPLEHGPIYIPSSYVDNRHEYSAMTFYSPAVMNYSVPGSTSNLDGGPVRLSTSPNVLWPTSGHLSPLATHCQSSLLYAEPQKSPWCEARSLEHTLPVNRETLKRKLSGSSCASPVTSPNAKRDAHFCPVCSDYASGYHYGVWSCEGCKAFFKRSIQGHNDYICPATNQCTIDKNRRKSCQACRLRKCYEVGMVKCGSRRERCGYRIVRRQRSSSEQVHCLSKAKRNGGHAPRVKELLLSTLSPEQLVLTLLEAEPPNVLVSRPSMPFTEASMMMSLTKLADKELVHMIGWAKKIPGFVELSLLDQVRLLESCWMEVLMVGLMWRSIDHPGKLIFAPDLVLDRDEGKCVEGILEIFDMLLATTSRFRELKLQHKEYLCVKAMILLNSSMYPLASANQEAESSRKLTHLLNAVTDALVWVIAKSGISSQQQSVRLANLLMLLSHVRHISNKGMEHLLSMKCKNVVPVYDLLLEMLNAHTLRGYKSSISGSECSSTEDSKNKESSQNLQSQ
Estrogen receptor beta (Homo sapiens, UniProt Q92731), sequence (Q92731 whole entry): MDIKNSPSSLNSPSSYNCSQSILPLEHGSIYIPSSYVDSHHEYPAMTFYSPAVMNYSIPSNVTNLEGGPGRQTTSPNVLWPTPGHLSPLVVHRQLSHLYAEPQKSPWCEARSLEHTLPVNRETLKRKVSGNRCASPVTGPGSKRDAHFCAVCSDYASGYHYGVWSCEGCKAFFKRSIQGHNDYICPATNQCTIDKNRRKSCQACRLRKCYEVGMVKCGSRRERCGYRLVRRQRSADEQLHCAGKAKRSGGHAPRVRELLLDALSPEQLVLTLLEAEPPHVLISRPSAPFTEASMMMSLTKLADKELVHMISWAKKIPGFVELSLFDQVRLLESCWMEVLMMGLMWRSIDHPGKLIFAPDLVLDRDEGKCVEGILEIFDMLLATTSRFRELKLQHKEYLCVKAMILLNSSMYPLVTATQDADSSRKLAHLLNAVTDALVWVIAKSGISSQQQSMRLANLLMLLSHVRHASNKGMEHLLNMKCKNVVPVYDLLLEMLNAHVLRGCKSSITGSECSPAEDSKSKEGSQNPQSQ

IC50 (Estrogen receptor beta [1])	IC50 (Estrogen receptor [2])	EC50 (Estrogen receptor beta [3])	EC50 (Estrogen receptor [4])	SMILES
0.137 µM	1.8 µM			Oc1ccc(-n2c(-c3ccccc3)nc3ccccc32)cc1
0.0119 µM	0.0948 µM			Oc1ccc(-c2[nH]c3ccccc3c2-c2ccc(O)cc2)cc1
0.149 µM	1.73 µM			Oc1ccc(-n2c(-c3ccccc3Cl)nc3ccccc32)cc1
0.355 µM	8.31 µM			Oc1ccc(-c2[nH]c3ccccc3c2-c2ccccc2)cc1
0.00112 µM	0.024 µM	0.00109 µM	0.0385 µM	Oc1ccc(-c2c(-c3ccccc3)[nH]c3ccccc23)cc1
0.171 µM	6.95 µM			c1ccc(-c2[nH]c3ccccc3c2-c2ccccc2)cc1
0.0151 µM	0.403 µM	0.0067 µM	0.243 µM	Oc1ccc(-c2[nH]c(C(F)(F)F)nc2-c2ccccc2)cc1
0.0143 µM	1.16 µM			Cc1nocc1-c1nc2ccccc2n1-c1ccc(O)cc1
0.0497 µM	> 6.26 µM			Oc1ccc(-n2c(-c3cccs3)nc3ccccc32)cc1
0.0281 µM	2.94 µM	0.0408 µM	> 1 µM	Cn1cccc1-c1nc2ccccc2n1-c1ccc(O)cc1

SMILES	IC50 (Estrogen receptor beta [1])	IC50 (Estrogen receptor [2])	EC50 (Estrogen receptor beta [3])	EC50 (Estrogen receptor [4])
Oc1ccc(-c2noc(C(F)(F)F)c2-c2ccccc2)cc1	0.0024 µM	0.0085 µM		
